Results: US20130295143A1, “ELECTROPROCESSING OF ACTIVE PHARMACEUTICAL INGREDIENTS” (Massachusetts Institute of Technology, priority 2012, published 2013)
“Also recorded” adds a separate entry of the source.

What was measured:
Type in all cases: physicochemical
[1] = Drug loading in electrospun fibers by UV-vis spectroscopy; conditions: 1:2 API:PVP, nominal API loading 33 wt %; average of three measurements
Procedure: In order to determine the actual drug loading in the electrospun fibers, samples were analyzed with a Perkin-Elmer (Waltham, Mass.) double-beam Lambda25 UV-vis spectrophotometer. A standard curve was prepared for ABZ in methanol for concentrations from 0.005 mg/mL to 0.05 mg/mL at an absorbance of 295 nm and for FAM in methanol for concentrations from 0.002 mg/mL to 0.035 mg/mL at an absorbance of 286 nm. […] A known mass of electrospun mat was dissolved in a known volume of methanol and diluted such that the expected concentration of API fell within the concentration ranges covered by the standard curves. From the resulting measured concentration, the mass of API in the original mat sample, and thus the weight percent API in the electrospun mat was calculated. Three measurements were made per API and were averaged to give the reported value.

[2] = USP dissolution test of compressed electrospun tablets vs compressed powder tablets; conditions: USP apparatus II, 50 rpm, 37° C., 900 mL; 0.1 N HCl for ABZ, 0.1 M Phosphate buffer for FAM; 150 mg 9 mm tablets, 1:2 API:PVP
Procedure: Powder tablets were prepared by weighing out 50 mg API powder and 100 mg PVP powder, mixing for 1 min, and pressing into 9 mm tablets using the same press with the same insertion depth. The electrospun tablets were compared to the compressed powder tablets for analysis. […] Dissolution was performed using a Varian VK 7025 dissolution bath (Agilent, Santa Clara, Calif.) and a Cary 50 Bio UV spectrophotometer (Agilent, Santa Clara, Calif.). For ABZ the standard USP methods were used with 900 mL 0.1 N HCl media, apparatus II, 50 rpm paddle speed and a temperature of 37° C. For FAM standard USP methods were used with 900 mL 0.1 M Phosphate buffer media, apparatus II, 50 rpm paddle speed, and a temperature of 37° C. Measurements were made every minute for 90 minutes by probes inserted in the bath and connected to the spectrophotometer by fiber optic cables.

[3] = Polymorphism of API before and after electrospinning (XRD, DSC); conditions: free-surface electrospinning from PVP/ethanol suspension
Procedure: Scanning electron microscopy (SEM) was used to analyze the morphology of the fibers. A Quorum Technologies SC7640 high resolution gold/palladium sputter coater was used to coat the samples, and a JEOL 6060 SEM at 5 kV operating voltage was used to obtain images. Both X-ray diffraction (XRD) and differential scanning calorimetry (DSC) were used to confirm the presence of crystals and analyze the polymorph present in the electrospun fibers. XRD was performed on a PANalytical X′Pert Pro with a reflection-transmission spinner PW 3064/60 sample stage and a Cu X-ray source with a 1.54 Å wavelength. DSC was performed on a TA DSC Q2000 instrument using a 2-6 mg sample in an aluminum sample pan. The materials were heated at 10° C./min to 250° C. and 200° C. for ABZ and FAM, respectively.

Compound	average loading of API in the electrospun fibers [1] [wt %]	dissolution amount, electrospun formulation relative to compressed powder tablet [2]	polymorphism of the API through the electrospinning process [3]
CCCSc1ccc2nc(NC(=O)OC)[nH]c2c1 [ABZ, albendazole]	31	more than twice the dissolution amount	retained their polymorphism throughout processing; also recorded: not significantly affected
NC(N)=Nc1nc(CSCCC(N)=NS(N)(=O)=O)cs1 [FAM, famotidine]	26	more than twice the dissolution amount	retained their polymorphism throughout processing
